According to patent US12281080B2, “Quinoline-based compounds and methods of inhibiting CDK8/19” (University of South Carolina, priority 2018, dated 2025):

Assays:
[1] = biological target: MST2 (STK3) (Homo sapiens (Human), UniProt Q13188); test: KINOMEscan scanMAX; format: binding; conditions: 2000 nM; read-out: Percent Control
[2] = biological target: ULK2 (Homo sapiens (Human), UniProt Q8IYT8); test: KINOMEscan scanMAX; format: binding; conditions: 2000 nM; read-out: Percent Control
[3] = biological target: CDK7 (Homo sapiens (Human), UniProt P50613); test: KINOMEscan scanMAX; format: binding; conditions: 2000 nM; read-out: Percent Control
[4] = biological target: SGK3 (Homo sapiens (Human), UniProt Q96BR1); test: KINOMEscan scanMAX; format: binding; conditions: 2000 nM; read-out: Percent Control
[5] = biological target: TSSK3 (Homo sapiens (Human), UniProt Q96PN8); test: KINOMEscan scanMAX; format: binding; conditions: 2000 nM; read-out: Percent Control
[6] = biological target: DRAK2 (STK17B) (Homo sapiens (Human), UniProt O94768); test: KINOMEscan scanMAX; format: binding; conditions: 2000 nM; read-out: Percent Control
[7] = biological target: PAK2 (Homo sapiens (Human), UniProt Q13177); test: KINOMEscan scanMAX; format: binding; conditions: 2000 nM; read-out: Percent Control
[8] = biological target: PIKFYVE (Homo sapiens (Human), UniProt Q9Y2I7); test: KINOMEscan scanMAX; format: binding; conditions: 2000 nM; read-out: Percent Control
[9] = Mouse pharmacokinetics, oral, serum; format: in vivo, mice
Protocol: To measure pharmacokinetics (PK), Senexin C dissolved in 5% Dextrose was administered orally (p.o.) to female FVB mice at 30 mg/kg. Blood samples were collected at different time points (5 mice per time point) and Senexin C concentration in the serum was measured by LC/MS/MS.

[10] = biological target: CHEK1 (Homo sapiens (Human), UniProt O14757); test: KINOMEscan scanMAX; format: binding; conditions: 2000 nM; read-out: Percent Control
[11] = biological target: ALK(L1196M) (Homo sapiens (Human), UniProt Q9UM73, L1196M); test: KINOMEscan scanMAX; format: binding; conditions: 2000 nM; read-out: Percent Control
[12] = biological target: MKK7 (MAP2K7) (Homo sapiens (Human), UniProt O14733); test: KINOMEscan scanMAX; format: binding; conditions: 2000 nM; read-out: Percent Control
[13] = biological target: WNK2 (Homo sapiens (Human), UniProt Q9Y3S1); test: KINOMEscan scanMAX; format: binding; conditions: 2000 nM; read-out: Percent Control
[14] = biological target: VEGFR2 (KDR) (Homo sapiens (Human), UniProt P35968); test: KINOMEscan scanMAX; format: binding; conditions: 2000 nM; read-out: Percent Control
[15] = biological target: EGFR(L747-E749del, A750P) (Homo sapiens (Human), UniProt P00533, A750P/DEL747-749); test: KINOMEscan scanMAX; format: binding; conditions: 2000 nM; read-out: Percent Control
[16] = biological target: FGFR2 (Homo sapiens (Human), UniProt P21802); test: KINOMEscan scanMAX; format: binding; conditions: 2000 nM; read-out: Percent Control
[17] = biological target: STK36 (Homo sapiens (Human), UniProt Q9NRP7); test: KINOMEscan scanMAX; format: binding; conditions: 2000 nM; read-out: Percent Control
[18] = Serum and tumor PK at study endpoint, C4-2 xenografts; format: in vivo, mice; conditions: 6-7 hours post last dose, 40 mg/kg orally daily for 4 days
Protocol: CDK8/19 inhibition decreases the expression of certain androgen-receptor (AR) inducible genes including PSA, the most common marker of prostate cancer, and the growth of castration-refractory prostate cancers (CRPC). The in vivo effects of Senexin C on PSA expression by C4-2 cells were analyzed after treatment of male NcrNU mice bearing C4-2 xenografts (grouped based on tumor sizes) for 4 days at 40 mg/kg administered orally daily.

[19] = biological target: CAMK2B (Homo sapiens (Human), UniProt Q13554); test: KINOMEscan scanMAX; format: binding; conditions: 2000 nM; read-out: Percent Control
[20] = biological target: MAPKAPK2 (Homo sapiens (Human), UniProt P49137); test: KINOMEscan scanMAX; format: binding; conditions: 2000 nM; read-out: Percent Control
[21] = biological target: MRCKA (CDC42BPA) (Homo sapiens (Human), UniProt Q5VT25); test: KINOMEscan scanMAX; format: binding; conditions: 2000 nM; read-out: Percent Control
[22] = biological target: NLK (Homo sapiens (Human), UniProt Q9UBE8); test: KINOMEscan scanMAX; format: binding; conditions: 2000 nM; read-out: Percent Control
[23] = biological target: LATS2 (Homo sapiens (Human), UniProt Q9NRM7); test: KINOMEscan scanMAX; format: binding; conditions: 2000 nM; read-out: Percent Control
[24] = biological target: CAMKK1 (Homo sapiens (Human), UniProt Q8N5S9); test: KINOMEscan scanMAX; format: binding; conditions: 2000 nM; read-out: Percent Control
[25] = biological target: SGK (SGK1) (Homo sapiens (Human), UniProt O00141); test: KINOMEscan scanMAX; format: binding; conditions: 2000 nM; read-out: Percent Control
[26] = biological target: FLT3(D835H) (Homo sapiens (Human), UniProt P36888, D835H); test: KINOMEscan scanMAX; format: binding; conditions: 2000 nM; read-out: Percent Control
[27] = biological target: NEK10 (Homo sapiens (Human), UniProt Q6ZWH5); test: KINOMEscan scanMAX; format: binding; conditions: 2000 nM; read-out: Percent Control
[28] = biological target: CSNK1D (Homo sapiens (Human), UniProt P48730); test: KINOMEscan scanMAX; format: binding; conditions: 2000 nM; read-out: Percent Control
[29] = biological target: DDR1 (Homo sapiens (Human), UniProt Q08345); test: KINOMEscan scanMAX; format: binding; conditions: 2000 nM; read-out: Percent Control
[30] = biological target: YES (YES1) (Homo sapiens (Human), UniProt P07947); test: KINOMEscan scanMAX; format: binding; conditions: 2000 nM; read-out: Percent Control
[31] = biological target: ABL1(H396P)-nonphosphorylated (Homo sapiens (Human), UniProt P00519, H396P); test: KINOMEscan scanMAX; format: binding; conditions: 2000 nM; read-out: Percent Control
[32] = biological target: MEK2 (MAP2K2) (Homo sapiens (Human), UniProt P36507); test: KINOMEscan scanMAX; format: binding; conditions: 2000 nM; read-out: Percent Control
[33] = biological target: PIK3CG (Homo sapiens (Human), UniProt P48736); test: KINOMEscan scanMAX; format: binding; conditions: 2000 nM; read-out: Percent Control
[34] = biological target: S6K1 (RPS6KB1) (Homo sapiens (Human), UniProt P23443); test: KINOMEscan scanMAX; format: binding; conditions: 2000 nM; read-out: Percent Control
[35] = biological target: KIT(V559D, V654A) (Homo sapiens (Human), UniProt P10721, V559D/V654A); test: KINOMEscan scanMAX; format: binding; conditions: 2000 nM; read-out: Percent Control

ULK2, sequence (Q8IYT8 whole entry): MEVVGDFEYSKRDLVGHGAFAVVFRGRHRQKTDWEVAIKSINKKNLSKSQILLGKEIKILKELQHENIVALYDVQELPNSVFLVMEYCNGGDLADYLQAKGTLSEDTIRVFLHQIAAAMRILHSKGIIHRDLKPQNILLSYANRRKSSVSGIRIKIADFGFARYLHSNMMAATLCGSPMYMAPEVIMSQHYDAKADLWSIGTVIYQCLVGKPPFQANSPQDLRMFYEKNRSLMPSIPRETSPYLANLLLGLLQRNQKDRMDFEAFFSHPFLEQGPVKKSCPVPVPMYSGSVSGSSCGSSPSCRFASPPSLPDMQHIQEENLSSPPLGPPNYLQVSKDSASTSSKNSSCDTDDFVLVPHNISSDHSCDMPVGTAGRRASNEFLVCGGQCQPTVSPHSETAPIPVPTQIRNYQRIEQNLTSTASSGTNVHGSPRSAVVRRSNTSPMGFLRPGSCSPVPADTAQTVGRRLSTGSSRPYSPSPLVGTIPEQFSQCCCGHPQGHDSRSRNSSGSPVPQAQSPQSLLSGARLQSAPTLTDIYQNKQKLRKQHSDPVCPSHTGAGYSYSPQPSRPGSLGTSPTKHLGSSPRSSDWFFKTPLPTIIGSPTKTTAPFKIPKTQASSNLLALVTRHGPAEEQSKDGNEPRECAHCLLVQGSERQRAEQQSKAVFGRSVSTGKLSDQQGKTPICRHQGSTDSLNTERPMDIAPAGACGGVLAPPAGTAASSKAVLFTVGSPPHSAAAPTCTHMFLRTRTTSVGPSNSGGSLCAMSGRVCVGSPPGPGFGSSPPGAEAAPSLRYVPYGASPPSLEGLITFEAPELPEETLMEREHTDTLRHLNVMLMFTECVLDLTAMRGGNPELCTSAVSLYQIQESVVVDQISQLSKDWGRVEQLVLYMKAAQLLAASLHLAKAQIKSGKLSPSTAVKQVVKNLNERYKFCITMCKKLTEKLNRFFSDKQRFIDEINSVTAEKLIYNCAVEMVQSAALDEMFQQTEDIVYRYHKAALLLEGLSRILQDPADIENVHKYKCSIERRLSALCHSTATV
CAMK2B, sequence (Q13554 whole entry): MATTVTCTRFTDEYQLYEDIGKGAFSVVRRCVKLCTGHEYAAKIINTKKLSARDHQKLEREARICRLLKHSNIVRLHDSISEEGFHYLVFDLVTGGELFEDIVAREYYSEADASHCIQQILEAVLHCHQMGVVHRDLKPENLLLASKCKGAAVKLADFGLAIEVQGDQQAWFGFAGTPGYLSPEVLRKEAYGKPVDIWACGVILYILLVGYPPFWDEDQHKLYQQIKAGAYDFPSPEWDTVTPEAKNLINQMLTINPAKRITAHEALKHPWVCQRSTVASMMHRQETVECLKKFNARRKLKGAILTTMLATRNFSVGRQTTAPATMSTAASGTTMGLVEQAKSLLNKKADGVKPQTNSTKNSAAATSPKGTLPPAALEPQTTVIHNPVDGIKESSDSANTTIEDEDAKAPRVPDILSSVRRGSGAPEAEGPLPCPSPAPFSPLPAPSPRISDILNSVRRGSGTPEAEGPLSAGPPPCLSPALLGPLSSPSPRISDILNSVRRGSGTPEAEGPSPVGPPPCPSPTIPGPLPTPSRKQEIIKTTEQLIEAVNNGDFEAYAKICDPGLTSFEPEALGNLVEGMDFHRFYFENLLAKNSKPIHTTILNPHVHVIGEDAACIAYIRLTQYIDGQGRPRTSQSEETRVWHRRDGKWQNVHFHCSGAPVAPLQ
CSNK1D, sequence (P48730 whole entry): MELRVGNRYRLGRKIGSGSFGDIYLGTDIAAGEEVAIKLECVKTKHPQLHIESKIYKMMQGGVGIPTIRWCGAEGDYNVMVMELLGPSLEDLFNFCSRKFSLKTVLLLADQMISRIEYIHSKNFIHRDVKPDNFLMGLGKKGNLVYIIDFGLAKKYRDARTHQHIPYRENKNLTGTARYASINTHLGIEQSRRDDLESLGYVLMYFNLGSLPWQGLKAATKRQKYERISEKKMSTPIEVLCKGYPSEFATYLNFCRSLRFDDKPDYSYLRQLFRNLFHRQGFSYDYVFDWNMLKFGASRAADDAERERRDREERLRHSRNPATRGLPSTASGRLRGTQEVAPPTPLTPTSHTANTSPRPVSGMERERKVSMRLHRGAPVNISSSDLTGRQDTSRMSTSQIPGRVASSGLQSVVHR
NEK10, sequence (Q6ZWH5 whole entry): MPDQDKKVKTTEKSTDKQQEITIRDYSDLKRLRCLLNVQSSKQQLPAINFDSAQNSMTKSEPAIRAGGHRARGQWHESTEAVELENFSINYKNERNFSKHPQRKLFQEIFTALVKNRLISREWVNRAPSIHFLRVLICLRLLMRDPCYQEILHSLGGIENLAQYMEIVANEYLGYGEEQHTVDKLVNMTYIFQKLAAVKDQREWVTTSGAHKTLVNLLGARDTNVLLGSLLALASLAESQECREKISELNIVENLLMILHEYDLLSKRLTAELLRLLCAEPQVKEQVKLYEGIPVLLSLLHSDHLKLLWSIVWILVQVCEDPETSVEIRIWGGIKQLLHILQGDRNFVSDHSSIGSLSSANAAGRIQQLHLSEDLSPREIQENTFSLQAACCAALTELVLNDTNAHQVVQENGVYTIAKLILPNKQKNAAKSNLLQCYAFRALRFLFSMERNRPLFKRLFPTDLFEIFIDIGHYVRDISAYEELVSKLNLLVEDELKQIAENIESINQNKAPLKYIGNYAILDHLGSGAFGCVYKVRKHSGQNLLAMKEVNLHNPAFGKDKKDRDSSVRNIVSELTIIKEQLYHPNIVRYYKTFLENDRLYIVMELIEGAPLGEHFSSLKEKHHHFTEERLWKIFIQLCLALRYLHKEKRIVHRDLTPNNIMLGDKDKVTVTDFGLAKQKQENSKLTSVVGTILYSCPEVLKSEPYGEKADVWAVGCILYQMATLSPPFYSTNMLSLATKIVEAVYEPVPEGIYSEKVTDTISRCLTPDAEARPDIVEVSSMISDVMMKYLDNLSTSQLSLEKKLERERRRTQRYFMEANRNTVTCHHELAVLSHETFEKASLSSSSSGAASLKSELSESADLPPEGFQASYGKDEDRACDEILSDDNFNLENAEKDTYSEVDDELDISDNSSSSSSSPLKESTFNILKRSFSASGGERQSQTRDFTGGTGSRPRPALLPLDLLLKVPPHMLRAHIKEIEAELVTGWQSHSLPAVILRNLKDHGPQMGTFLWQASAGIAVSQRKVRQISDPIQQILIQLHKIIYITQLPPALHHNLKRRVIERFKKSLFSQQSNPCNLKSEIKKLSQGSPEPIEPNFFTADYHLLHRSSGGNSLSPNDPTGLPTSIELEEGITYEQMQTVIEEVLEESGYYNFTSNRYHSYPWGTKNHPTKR
MRCKA (CDC42BPA), sequence (Q5VT25 whole entry): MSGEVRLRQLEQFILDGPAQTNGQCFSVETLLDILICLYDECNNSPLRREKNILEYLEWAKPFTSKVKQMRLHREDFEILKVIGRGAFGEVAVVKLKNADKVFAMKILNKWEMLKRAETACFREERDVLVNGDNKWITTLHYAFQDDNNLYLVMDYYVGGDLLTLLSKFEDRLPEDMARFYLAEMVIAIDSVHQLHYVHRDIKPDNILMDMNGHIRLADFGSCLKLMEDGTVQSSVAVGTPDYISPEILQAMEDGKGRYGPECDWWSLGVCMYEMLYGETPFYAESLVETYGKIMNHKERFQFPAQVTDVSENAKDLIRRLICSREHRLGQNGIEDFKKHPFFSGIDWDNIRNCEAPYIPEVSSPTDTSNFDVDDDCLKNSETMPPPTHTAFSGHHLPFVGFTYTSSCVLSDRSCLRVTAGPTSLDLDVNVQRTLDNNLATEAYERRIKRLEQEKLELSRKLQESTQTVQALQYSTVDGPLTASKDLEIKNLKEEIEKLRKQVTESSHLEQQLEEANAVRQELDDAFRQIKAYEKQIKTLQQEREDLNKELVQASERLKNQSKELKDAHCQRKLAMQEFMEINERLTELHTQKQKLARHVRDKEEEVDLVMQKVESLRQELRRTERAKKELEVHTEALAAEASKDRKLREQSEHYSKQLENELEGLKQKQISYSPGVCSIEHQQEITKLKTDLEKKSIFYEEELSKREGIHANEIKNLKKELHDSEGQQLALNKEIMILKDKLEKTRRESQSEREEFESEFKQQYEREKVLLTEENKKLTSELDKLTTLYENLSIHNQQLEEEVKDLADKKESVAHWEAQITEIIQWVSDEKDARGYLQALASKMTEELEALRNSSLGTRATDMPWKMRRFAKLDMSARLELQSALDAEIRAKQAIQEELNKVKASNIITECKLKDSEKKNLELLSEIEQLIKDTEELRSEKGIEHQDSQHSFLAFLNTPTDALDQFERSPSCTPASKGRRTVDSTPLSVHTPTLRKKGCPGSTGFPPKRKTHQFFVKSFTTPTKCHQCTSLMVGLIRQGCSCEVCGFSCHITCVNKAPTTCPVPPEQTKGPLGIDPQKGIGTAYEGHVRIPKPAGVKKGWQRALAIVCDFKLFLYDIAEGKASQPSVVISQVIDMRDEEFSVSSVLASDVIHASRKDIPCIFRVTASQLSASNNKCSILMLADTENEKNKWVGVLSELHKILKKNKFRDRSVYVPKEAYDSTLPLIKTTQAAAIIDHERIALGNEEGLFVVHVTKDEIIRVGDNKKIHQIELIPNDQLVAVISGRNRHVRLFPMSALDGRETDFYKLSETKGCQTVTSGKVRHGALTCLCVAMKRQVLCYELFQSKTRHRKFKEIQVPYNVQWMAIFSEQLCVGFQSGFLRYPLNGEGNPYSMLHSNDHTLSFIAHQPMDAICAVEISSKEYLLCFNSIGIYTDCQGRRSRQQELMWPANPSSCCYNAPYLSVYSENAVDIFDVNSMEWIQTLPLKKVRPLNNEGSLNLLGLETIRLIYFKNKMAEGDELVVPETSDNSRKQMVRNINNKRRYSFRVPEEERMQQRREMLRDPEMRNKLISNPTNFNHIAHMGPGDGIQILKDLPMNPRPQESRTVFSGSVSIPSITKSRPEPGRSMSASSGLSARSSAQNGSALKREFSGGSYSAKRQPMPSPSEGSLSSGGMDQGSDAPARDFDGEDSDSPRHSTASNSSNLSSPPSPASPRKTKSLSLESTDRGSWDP

SMILES: CN1CCN(C(=O)c2ccc3cc(CCNc4ccnc5ccc(C#N)cc45)ccc3c2)CC1 [compound 6148, 4-((2-(6-(4-methylpiperazine-1-carbonyl)naphthalen-2-yl)ethyl)amino)quinoline-6-carbonitrile]
- remaining binding at 2 µM [1]: 100%
- remaining binding at 2 µM [2]: 71%
- remaining binding at 2 µM [3]: 69%
- remaining binding at 2 µM [4]: 75%
- remaining binding at 2 µM [5]: 81%
- remaining binding at 2 µM [6]: 87%
- remaining binding at 2 µM [7]: 84%
- remaining binding at 2 µM [8]: 86%
- Increase of half-time, oral vs i.p. ([9]; female, FVB, mouse, in vivo): 4-5 times
- half-time ([9]; p.o. 30 mg/kg, female FVB mice): 3.8 h
- remaining binding at 2 µM [10]: 100%
- remaining binding at 2 µM [11]: 92%
- remaining binding at 2 µM [12]: 75%
- remaining binding at 2 µM [13]: 59%
- remaining binding at 2 µM [14]: 82%
- remaining binding at 2 µM [15]: 77%
- remaining binding at 2 µM [16]: 98%
- remaining binding at 2 µM [17]: 88%
- Drug concentration in tumor tissues vs serum [18]: higher Senexin C drug concentration in tumor tissues
- remaining binding at 2 µM [19]: 97%
- remaining binding at 2 µM [20]: 91%
- remaining binding at 2 µM [21]: 98%
- remaining binding at 2 µM [22]: 90%
- remaining binding at 2 µM [23]: 88%
- remaining binding at 2 µM [24]: 100%
- remaining binding at 2 µM [25]: 50%
- remaining binding at 2 µM [26]: 88%
- remaining binding at 2 µM [27]: 41%
- remaining binding at 2 µM [28]: 87%
- remaining binding at 2 µM [29]: 100%
- remaining binding at 2 µM [30]: 100%
- remaining binding at 2 µM [31]: 73%
- remaining binding at 2 µM [32]: 64%
- remaining binding at 2 µM [33]: 76%
- remaining binding at 2 µM [34]: 78%
- remaining binding at 2 µM [35]: 89%
